Source: patent US6841559B1, “Pyridinones to treat and prevent bacterial infections” (Washington University of St. Louis, priority 1999, dated 2005)

What was measured:
[1] = molecular target: periplasmic chaperone PapD (Escherichia coli, UniProt P15319); assay: Direct binding assay on BIACORE 3000, immobilized PapD; conditions: pyridinone 30 uM, 25° C., 30 μL/min, triplicate, Sensor Chip CM5
Method: (§1) The affinity of the following pyridinone: [drawing 73] for periplasmic chaperones PapD and FimC were investigated using a direct binding assay on BIACORE 3000. Methods
(§2) PapD (50 μg/ML in 10 mM NaAc pH 5.5) and FimC (50 μg/mL in 10 mM NaAc pH 5.5) were mobilized on Sensor Chi CM5 using standard thiol coupling procedure. This procedure was also employed for coupling of non-target proteins. Immobilization levels of 4000-10000 RU were obtained. Unmodified dextrane in one of the flow cells was used as reference surface.
(§3) The pyridinone was diluted from 10 mM DMSO stock solution to a final concentration of 30 μM in running buffer (6.7 mM phosphate buffer (9.6 g Na2HPO4.2H2O, 1.7 G KH2PO4, 4.1 g NaCl, 100 mL H2O), 3.4 mM EDTA, 0.01% TWEEN, 5% DMSO, pH 7.4) so that the concentrations of DMSO and buffer substances were carefully matched. The compounds were injected (flow rate was 30 μL/min at 25° C.) and the binding of the compounds to the immobilized chaperone proteins was observed on real time. The surface was regenerated by injection of 10 mM glycin.HCl, pH 2.0 and then washed with a 1:1 mixture of DMSO and water.
(§4) For screening of the affinity of the compounds of PapD and FimC, the pyridinone was injected (flow rate was 30 μL/min at 25° C.) at a concentration of 30 μM in triplicate. […]
as §3, with “KH2PO2PO4,” for “KH2PO4,”, “water. […]” for “water.”
(§5) A direct binding assay on BIACORE 3000 was employed to test the affinity of the following pyridinone: [drawing 76] for periplasmic chaperones PapD and FimC. Methods

[2] = molecular target: periplasmic chaperone FimC (Escherichia coli, UniProt P31697); assay: Direct binding assay on BIACORE 3000, immobilized FimC; conditions: pyridinone 30 uM, 25° C., 30 μL/min, triplicate, Sensor Chip CM5
Method: as §1, §2, §3, §4
as §3, with “KH2PO2PO4,” for “KH2PO4,”, “water. […]” for “water.”
as §5

Sequence of periplasmic chaperone PapD (P15319 22-239): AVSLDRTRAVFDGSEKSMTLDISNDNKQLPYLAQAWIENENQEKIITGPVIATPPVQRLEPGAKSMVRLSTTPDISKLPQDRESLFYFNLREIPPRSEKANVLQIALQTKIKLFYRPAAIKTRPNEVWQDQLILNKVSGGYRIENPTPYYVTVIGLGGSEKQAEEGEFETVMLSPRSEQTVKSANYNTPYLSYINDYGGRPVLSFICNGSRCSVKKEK
Sequence of periplasmic chaperone FimC (P31697 37-241): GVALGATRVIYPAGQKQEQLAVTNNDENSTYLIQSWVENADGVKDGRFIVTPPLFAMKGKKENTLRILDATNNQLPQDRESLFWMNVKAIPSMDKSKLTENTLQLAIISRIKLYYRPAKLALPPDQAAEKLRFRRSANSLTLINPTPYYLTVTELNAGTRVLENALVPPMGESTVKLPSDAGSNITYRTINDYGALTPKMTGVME

SMILES | Response Units PapD 30 uM [1] | Response Units FimC 30 uM [2]
O=C(O)[C@@H]1CSc2cc(Cc3cccc4ccccc34)cc(=O)n21 [H_Pyr_COOH] | 6,760176162 Response Units | 11,69075072 Response Units
Cc1cc(=O)n2c(c1C)SC[C@H]2C(=O)O [Me_Me_Pyr_COOH] | 1,676914034 Response Units | 6,535311642 Response Units
Cc1cc(=O)n2c(c1-c1ccccc1)SC[C@H]2C(=O)O [Me_Ph_Pyr_COOH] | 3,90056354 Response Units | 6,753367367 Response Units
O=C(O)[C@@H]1CSc2c(-c3ccccc3)c(Cc3cccc4ccccc34)cc(=O)n21 [Ph_Pyr_COOH] | 46,22397585 Response Units | 60,71350348 Response Units
